Data on one compound can be found in BindingDB's records for PubMed 38142509 (Sichuan University).

pIC50: −log10 of the molar value.

The assay concerns the target Signal transducer and activator of transcription 3 (Homo sapiens, UniProt P40763). Put plainly: Inhibition of STAT3 (unknown origin).

Chain of Signal transducer and activator of transcription 3 (P40763 whole entry): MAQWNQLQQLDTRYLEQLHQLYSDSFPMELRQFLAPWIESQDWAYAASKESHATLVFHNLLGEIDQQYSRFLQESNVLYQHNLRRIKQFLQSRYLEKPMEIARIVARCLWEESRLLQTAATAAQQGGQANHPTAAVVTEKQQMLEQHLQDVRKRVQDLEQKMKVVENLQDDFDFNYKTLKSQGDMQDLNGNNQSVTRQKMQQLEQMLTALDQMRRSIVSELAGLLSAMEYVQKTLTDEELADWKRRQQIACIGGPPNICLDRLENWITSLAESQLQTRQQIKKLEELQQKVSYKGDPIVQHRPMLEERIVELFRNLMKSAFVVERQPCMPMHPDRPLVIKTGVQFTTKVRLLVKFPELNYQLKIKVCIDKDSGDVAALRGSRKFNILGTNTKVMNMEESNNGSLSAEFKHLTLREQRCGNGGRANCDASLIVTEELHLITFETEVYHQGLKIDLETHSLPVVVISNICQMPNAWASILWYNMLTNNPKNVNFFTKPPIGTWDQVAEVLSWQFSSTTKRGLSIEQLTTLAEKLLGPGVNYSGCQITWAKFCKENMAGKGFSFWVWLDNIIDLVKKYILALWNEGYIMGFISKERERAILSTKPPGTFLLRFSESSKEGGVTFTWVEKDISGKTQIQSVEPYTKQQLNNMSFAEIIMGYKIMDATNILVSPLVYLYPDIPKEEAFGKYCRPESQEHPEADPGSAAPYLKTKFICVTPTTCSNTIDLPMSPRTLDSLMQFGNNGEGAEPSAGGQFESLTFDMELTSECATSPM

Broadly, the pIC50 is the negative decadic logarithm of the IC50, by convention in mol/L. As for `COC(=O)[C@@]12OC[C@]34[C@H]([C@@H](O)[C@@H]1O)[C@@]1(C)CC(=O)C(O)=C(C)[C@@H]1C[C@H]3OC(=O)[C@H](OC(=O)C=C(C)C(C)(C)OC(C)=O)[C@@H]24`, the pIC50 was 8.62.
